# Test results published in the Kinase Knowledgebase extract (Sharma et al. 2016).
# Target: MAPK14 (human) (UniProt Q16539)
# Assay: Inhibition of MAPK14 Kinase Activity
# Chain of MAPK14 (human) (Q16539 whole entry, looked up): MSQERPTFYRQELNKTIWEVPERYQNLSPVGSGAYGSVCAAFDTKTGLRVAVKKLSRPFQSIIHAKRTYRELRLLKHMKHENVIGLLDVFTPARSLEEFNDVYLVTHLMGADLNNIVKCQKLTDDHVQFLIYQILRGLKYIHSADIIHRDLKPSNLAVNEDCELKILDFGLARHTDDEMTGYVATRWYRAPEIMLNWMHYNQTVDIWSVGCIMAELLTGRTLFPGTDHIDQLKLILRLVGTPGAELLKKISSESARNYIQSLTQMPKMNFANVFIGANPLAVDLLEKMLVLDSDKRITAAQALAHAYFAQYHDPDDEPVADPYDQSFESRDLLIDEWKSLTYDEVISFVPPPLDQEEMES
row,Structure (SMILES),IC50 [nM]
1,CCCCCNc1cc(-c2c(C(C)C)noc2-c2ccc(F)cc2)ccn1,82000
2,CCCNc1cc(-c2c(C(C)C)noc2-c2ccc(F)cc2)ccn1,4000
3,CC(C)c1noc(-c2ccc(F)cc2)c1-c1ccnc(NC2CC2)c1,2000
4,CCCCOc1cc(-c2cnoc2-c2ccc(F)cc2)ccn1,21000
5,C[S+]([O-])c1ccc(-c2cc(-c3ccc(F)cc3)c(-c3ccncc3)[nH]2)cc1 (stereo not drawn),1220
6,Fc1ccc(-c2oncc2-c2ccnc(OCCc3ccccc3)c2)cc1,34000
7,Nc1onc(-c2ccncc2)c1-c1ccc(F)cc1,1610
8,COc1cc(-c2cnoc2-c2ccc(F)cc2)ccn1,50000
9,CCOc1cc(-c2cnoc2-c2ccc(F)cc2)ccn1,82000
10,CC(C)Oc1cc(-c2cnoc2-c2ccc(F)cc2)ccn1,31000
11,Fc1ccc(-c2oncc2-c2ccncc2)cc1,41000
12,CCOc1cc(-c2c(C(C)C)noc2-c2ccc(F)cc2)ccn1,56000
13,CN1CCC(O)(c2nc(-c3ccc(F)cc3)c(-c3ccncc3)[nH]2)CC1,90
14,CC(C)c1noc(-c2ccc(F)cc2)c1-c1ccnc(NC(C)c2ccccc2)c1 (stereo not drawn),550
15,CN1CCC(O)(c2nc(-c3ccncc3)c(-c3ccc(F)cc3)o2)CC1,2000
16,Fc1ccc(-c2oc(-c3ccc(Cl)cc3)cc2-c2ccncc2)cc1,630
17,CN1CCC(O)(c2nc(-c3ccc(F)cc3)c(-c3ccncc3)o2)CC1,350
18,Fc1ccc(-c2oncc2-c2ccnc(Br)c2)cc1,89000
19,Fc1ccc(-c2oncc2-c2ccnc(Cl)c2)cc1,42000
20,Fc1ccc(-c2conc2-c2ccncc2)cc1,1220
21,Fc1ccc(-c2[nH]c(-c3ccc(Cl)cc3)cc2-c2ccncc2)cc1,200
22,Fc1ccc(-c2nc[nH]c2-c2ccncc2)cc1,170
23,CC(C)c1noc(-c2ccc(F)cc2)c1-c1ccnc(NCC2CC2)c1,1300
